Data: patent publication US11566007B2, “Ras inhibitors” (Revolution Medicines, Inc., priority 2019, dated 2023)

Key:
Format in all cases: biochemical
K-Ras G12C = K-Ras G12C (Homo sapiens (Human), UniProt P01116+P62937, G12C); test: Ras-Raf (BRAF RBD) disruption / FRET / MOA assay, KRAS G12C; conditions: KRAS G12C; Ras-Raf disruption/FRET/MOA assay; read-out: IC50* KRAS G12C FRET data
Method in brief: (§1)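 Compound-driven ternary complex of nucleotide-loaded Ras with cyclophilin A, disrupting BRAF RBD binding. 10-point 3-fold dilution from 30 μM final, 3 h at 25° C, then anti-His Eu-W1024 (10 nM) and anti-GST allophycocyanin (50 nM) for 1.5 h. IC50 from TR-FRET ratio decrease versus DMSO.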

K-Ras G13C = K-Ras G13C (Homo sapiens (Human), UniProt P01116+P62937, G13C); test: Ras-Raf (BRAF RBD) disruption / FRET / MOA assay, KRAS G13C; conditions: KRAS G13C; Ras-Raf disruption/FRET/MOA assay; read-out: IC50* KRAS G13C FRET data
Method in brief: as §1

KRAS G12S = KRAS G12S (Homo sapiens (Human), UniProt P01116+P62937, G12S); test: Ras-Raf (BRAF RBD) disruption / FRET / MOA assay, KRAS G12S; conditions: Ras-Raf disruption/FRET/MOA assay; class symbols; read-out: KRAS G12S FRET data IC50
Method in brief: as §1

KRAS G12D = KRAS G12D (Homo sapiens (Human), UniProt P01116+P62937, G12D); test: Ras-Raf (BRAF RBD) disruption / FRET / MOA assay, KRAS G12D; conditions: Ras-Raf disruption/FRET/MOA assay; class symbols; read-out: KRAS G12D FRET data IC50
Method in brief: as §1

KRAS G12V = KRAS G12V (Homo sapiens (Human), UniProt P01116+P62937, G12V); test: Ras-Raf (BRAF RBD) disruption / FRET / MOA assay, KRAS G12V; conditions: read-out: IC50* KRAS G12V FRET data
Method in brief: as §1

KRAS WT = KRAS WT (Homo sapiens (Human), UniProt P01116+P62937); test: Ras-Raf (BRAF RBD) disruption / FRET / MOA assay, KRAS WT; conditions: read-out: IC50* KRAS WT FRET data
Method in brief: as §1

KRAS G13D = KRAS G13D (Homo sapiens (Human), UniProt P01116+P62937, G13D); test: Ras-Raf (BRAF RBD) disruption / FRET / MOA assay, KRAS G13D; conditions: read-out: IC50* KRAS G13D FRET data
Method in brief: as §1

NRAS G12C = NRAS G12C (Homo sapiens (Human), UniProt P01111+P62937, G12C); test: Ras-Raf (BRAF RBD) disruption / FRET / MOA assay, NRAS G12C; conditions: read-out: IC50* NRAS G12C FRET data
Method in brief: as §1

NRAS Q61R = NRAS Q61R (Homo sapiens (Human), UniProt P01111+P62937, Q61R); test: Ras-Raf (BRAF RBD) disruption / FRET / MOA assay, NRAS Q61R; conditions: NRAS Q61R; Ras-Raf disruption/FRET/MOA assay; read-out: IC50* NRAS Q61R FRET data
Method in brief: (§2)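 Compounds (30 μM top final, 10-point 3-fold dilutions) incubated 3 h at 25° C with nucleotide-loaded Ras, cyclophilin A and BRAF RBD. Detection with 10 nM anti-His Eu-W1024 and 50 nM anti-GST allophycocyanin over another 1.5 h. Lowered TR-FRET ratio relative to DMSO wells gives IC50.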

NRAS WT = NRAS WT (Homo sapiens (Human), UniProt P01111+P62937); test: Ras-Raf (BRAF RBD) disruption / FRET / MOA assay, NRAS WT; conditions: read-out: IC50* NRAS WT FRET data
Method in brief: as §2

Chain of K-Ras G13C (P01116-2 other isoform, or with tags, fused parts or gaps G13C): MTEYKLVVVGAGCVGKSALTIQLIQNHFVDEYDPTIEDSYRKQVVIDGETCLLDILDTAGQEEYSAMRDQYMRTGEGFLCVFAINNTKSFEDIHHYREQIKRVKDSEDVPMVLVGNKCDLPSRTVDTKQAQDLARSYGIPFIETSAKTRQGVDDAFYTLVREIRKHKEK
Chain of K-Ras G13C (P62937 whole entry): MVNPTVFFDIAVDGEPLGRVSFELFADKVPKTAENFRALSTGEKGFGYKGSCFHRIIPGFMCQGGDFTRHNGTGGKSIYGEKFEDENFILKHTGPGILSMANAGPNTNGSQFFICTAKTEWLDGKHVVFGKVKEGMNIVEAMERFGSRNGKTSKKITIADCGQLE
Chain of KRAS G12V (P01116-2 other isoform, or with tags, fused parts or gaps G12V): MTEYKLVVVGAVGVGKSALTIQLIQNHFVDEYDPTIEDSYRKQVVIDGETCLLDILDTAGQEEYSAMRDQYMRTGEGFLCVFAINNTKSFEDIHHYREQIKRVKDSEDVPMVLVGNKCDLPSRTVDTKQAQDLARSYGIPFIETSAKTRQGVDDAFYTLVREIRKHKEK
Chain of KRAS G12V (P62937 whole entry): as the sequence (P62937 whole entry) above
Chain of KRAS G13D (P01116-2 other isoform, or with tags, fused parts or gaps G13D): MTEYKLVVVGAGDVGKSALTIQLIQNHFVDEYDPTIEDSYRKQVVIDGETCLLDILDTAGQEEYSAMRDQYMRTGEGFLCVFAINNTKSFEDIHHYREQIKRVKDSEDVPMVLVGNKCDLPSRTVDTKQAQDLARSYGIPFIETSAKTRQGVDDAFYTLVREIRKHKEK
Chain of KRAS G13D (P62937 whole entry): as the sequence (P62937 whole entry) above
Chain of KRAS WT (P01116-2 other isoform, or with tags, fused parts or gaps): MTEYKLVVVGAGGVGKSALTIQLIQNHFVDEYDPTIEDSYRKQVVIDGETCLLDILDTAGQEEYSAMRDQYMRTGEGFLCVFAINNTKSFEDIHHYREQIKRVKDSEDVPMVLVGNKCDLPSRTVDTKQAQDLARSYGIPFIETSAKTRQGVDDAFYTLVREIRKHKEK
Chain of KRAS WT (P62937 whole entry): as the sequence (P62937 whole entry) above
Chain of NRAS WT (P01111 whole entry): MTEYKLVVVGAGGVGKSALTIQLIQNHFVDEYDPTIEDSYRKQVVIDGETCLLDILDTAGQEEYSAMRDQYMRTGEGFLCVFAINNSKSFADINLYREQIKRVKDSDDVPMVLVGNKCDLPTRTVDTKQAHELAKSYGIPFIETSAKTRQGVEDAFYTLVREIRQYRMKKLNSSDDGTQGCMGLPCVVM
Chain of NRAS WT (P62937 whole entry): as the sequence (P62937 whole entry) above
Chain of NRAS Q61R (P01111 whole entry Q61R): as the sequence (P01111 whole entry) above, with Q61R counted along it
Chain of NRAS Q61R (P62937 whole entry): as the sequence (P62937 whole entry) above
Chain of KRAS G12D (P01116-2 other isoform, or with tags, fused parts or gaps G12D): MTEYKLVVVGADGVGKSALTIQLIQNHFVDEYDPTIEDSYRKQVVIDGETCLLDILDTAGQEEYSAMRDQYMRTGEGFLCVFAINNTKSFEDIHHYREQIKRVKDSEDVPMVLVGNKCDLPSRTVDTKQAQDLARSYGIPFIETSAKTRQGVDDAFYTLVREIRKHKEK
Chain of KRAS G12D (P62937 whole entry): as the sequence (P62937 whole entry) above
Chain of K-Ras G12C (P01116-2 other isoform, or with tags, fused parts or gaps G12C): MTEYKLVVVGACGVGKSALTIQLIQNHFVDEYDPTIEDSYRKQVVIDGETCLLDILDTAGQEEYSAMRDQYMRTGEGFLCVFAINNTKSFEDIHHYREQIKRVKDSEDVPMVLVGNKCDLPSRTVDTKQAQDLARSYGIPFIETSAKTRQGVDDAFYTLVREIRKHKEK
Chain of K-Ras G12C (P62937 whole entry): as the sequence (P62937 whole entry) above
Chain of KRAS G12S (P01116-2 other isoform, or with tags, fused parts or gaps G12S): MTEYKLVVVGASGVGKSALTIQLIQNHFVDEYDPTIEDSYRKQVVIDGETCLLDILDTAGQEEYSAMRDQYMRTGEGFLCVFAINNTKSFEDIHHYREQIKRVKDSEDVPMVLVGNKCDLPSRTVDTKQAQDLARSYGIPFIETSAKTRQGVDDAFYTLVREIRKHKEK
Chain of KRAS G12S (P62937 whole entry): as the sequence (P62937 whole entry) above
Chain of NRAS G12C (P01111 whole entry G12C): as the sequence (P01111 whole entry) above, with G12C counted along it
Chain of NRAS G12C (P62937 whole entry): as the sequence (P62937 whole entry) above

| SMILES | IC50 (K-Ras G12C) [nM] | IC50 (K-Ras G13C) [nM] | IC50 (KRAS G12S) [nM] | IC50 (KRAS G12D) [nM] | IC50 (KRAS G12V) [nM] | IC50 (KRAS WT) [nM] | IC50 (KRAS G13D) [nM] | IC50 (NRAS G12C) [nM] | IC50 (NRAS Q61R) [nM] | IC50 (NRAS WT) [nM] |
| --- | --- | --- | --- | --- | --- | --- | --- | --- | --- | --- |
| C=CC(=O)N1CC[C@@]2(C1)CN(C(=O)N(C)[C@H](C(=O)N[C@H]1Cc3nc(cs3)-c3ccc4c(c3)c(c(-c3cccnc3[C@H](C)OC)n4CC)CC(C)(C)COC(=O)[C@@H]3CCCN(N3)C1=O)C(C)C)CCO2 (atropisomer, axis not shown) [Example A353] | 10 to 100 | 100 to 1000 | 100 to 1000 | 100 to 1000 | 100 to 1000 | 100 to 1000 | 100 to 1000 | 10 to 100 | 100 to 1000 | 100 to 1000 |
| C=CC(=O)NC[C@H]1CCN1C(=O)N(C)[C@H](C(=O)N[C@H]1Cc2nc(cs2)-c2ccc3c(c2)c(c(-c2cccnc2[C@H](C)OC)n3CC)CC(C)(C)COC(=O)[C@@H]2CCCN(N2)C1=O)C(C)C (atropisomer, axis not shown) [Example A356] | 100 to 1000 | 100 to 1000 | 1000 to 10000 | 1000 to 10000 | 1000 to 10000 | 100 to 1000 | 1000 to 10000 | 100 to 1000 | 100 to 1000 | 100 to 1000 |
| C=C(C)C(=O)N1CC(N(C)C(=O)N(C)[C@H](C(=O)N[C@H]2Cc3nc(cs3)-c3ccc4c(c3)c(c(-c3cccnc3[C@H](C)OC)n4CC)CC(C)(C)COC(=O)[C@@H]3CCCN(N3)C2=O)C(C)C)C1 (atropisomer, axis not shown) [Example A360] | 100 to 1000 | 100 to 1000 | 100 to 1000 | 1000 to 10000 | 100 to 1000 | 100 to 1000 | 1000 to 10000 | 100 to 1000 | 100 to 1000 | 100 to 1000 |
| CCn1c(-c2cccnc2[C@H](C)OC)c2c3cc(ccc31)-c1csc(n1)C[C@H](NC(=O)[C@H](C(C)C)N(C)C(=O)N(C)C1CN(C(=O)/C=C/CN(C)C)C1)C(=O)N1CCC[C@H](N1)C(=O)OCC(C)(C)C2 (atropisomer, axis not shown) [Example A361] | 10 to 100 | 100 to 1000 | 100 to 1000 | 1000 to 10000 | 100 to 1000 | 100 to 1000 | 100 to 1000 | 10 to 100 | 100 to 1000 | 100 to 1000 |
| CCn1c(-c2cccnc2[C@H](C)OC)c2c3cc(ccc31)-c1csc(n1)C[C@H](NC(=O)CN1CC[C@@]3(CCN(C(=O)C#CC(C)(C)N4CCC4)C3)C1)C(=O)N1CCC[C@H](N1)C(=O)OCC(C)(C)C2 (atropisomer, axis not shown) [Example A364] | 100 to 1000 | 1000 to 10000 | 1000 to 10000 | > 10000 | 1000 to 10000 | 1000 to 10000 | 1000 to 10000 | 100 to 1000 | 1000 to 10000 | 1000 to 10000 |
| CCn1c(-c2cccnc2[C@H](C)OC)c2c3cc(ccc31)-c1csc(n1)C[C@H](NC(=O)CCO[C@@H]1CCN(C(=O)C#CC(C)(C)N3CCC3)C1)C(=O)N1CCC[C@H](N1)C(=O)OCC(C)(C)C2 (atropisomer, axis not shown) [Example A366] | 10 to 100 | 100 to 1000 | 1000 to 10000 | 1000 to 10000 | 100 to 1000 | 1000 to 10000 | 1000 to 10000 | 100 to 1000 | 1000 to 10000 | 1000 to 10000 |
| C=CC(=O)N1CC[C@H](C(=O)N(C)[C@H](C(=O)N[C@H]2Cc3cc(cc(C(F)F)c3)-c3ccc4c(c3)c(c(-c3cccnc3[C@H](C)OC)n4CC(F)(F)F)CC(C)(C)COC(=O)[C@@H]3CCCN(N3)C2=O)C(C)C)C1 (atropisomer, axis not shown) [Example A372] | 100 to 1000 | 100 to 1000 | 1000 to 10000 | > 10000 | 1000 to 10000 | 1000 to 10000 | 1000 to 10000 | 100 to 1000 | 1000 to 10000 | 1000 to 10000 |
